Assay results: patent US20160271157A1, “BETA-CATENIN” (UCL BUSINESS PLC, priority 2013, published 2016)

B1: Wnt5A: Recombinant Wnt peptide purchased from R&D systems (protein, UniProt P41221 62-380, looked up)
Protein Wnt-5a: IIGAQPLCSQLAGLSQGQKKLCHLYQDHMQYIGEGAKTGIKECQYQFRHRRWNCSTVDNTSVFGRVMQIGSRETAFTYAVSAAGVVNAMSRACREGELSTCGCSRAARPKDLPRDWLWGGCGDNIDYGYRFAKEFVDARERERIHAKGSYESARILMNLHNNEAGRRTVYNLADVACKCHGVSGSCSLKTCWLQLADFRKVGDALKEKYDSAAAMRLNSRGKLVQVNSRFNSPTTQDLVYIDPSPDYCVRNESTGSLGTQGRLCNKTSEGMDGCELMCCGRGYDQFKTVQTERCHCKFHWCCYVKCKKCTEIVDQFVCK

What was measured:
Format in all cases: cell-based
[1] = system: PC3 cells; test: Scratch wound assay; details: wounded PC3 cells, ±Wnts and thapsigargin, vs control untreated cells
Protocol: PC3 cells were grown in 24 well, ImageLock plates (Essen Bioscience, MI) to confluency and scratched using a wound maker device (Essen Bioscience, MI). Imaging (at 2 h intervals) and quantitation of wound width was performed as described earlier (Wang at al., (2010) PLoS ONE 5, e10456) using Incucyte (Essen Bioscience, MI). The rate of wound closure (±Wnts and thapsigargin) was calculated by fitting the line using linear regression function in Origin software (Origin Lab Corp., MA). Statistical significance of difference between the slopes for untreated and treated samples was calculated using F-test.

[2] = system: Wnt induced calcium release; test: Wnt induced [Ca2+]i release after preincubation with thapsigargin or membrane potential regulating compounds; details: PC3 cells, thapsigargin 5 μM for 15 min; Wnt5A 100 ng/ml, Wnt9B 200 ng/ml, Wnt10B 200 ng/ml
Protocol: (§1) The imaging protocol was developed in the inventor's laboratory and has been described in detail, elsewhere (Wang at al., (2010) PLoS ONE 5, e10456). Briefly, 100000-200000 PC3, MCF7, 253J or Cos 7 cells were plated on 35 mm FluoroDish (WPI) and grown for 48 h; calcium indicators Fluo-4 (Invitrogen) and FuraRed (Invitrogen) at 1 ng/ml were added to FluoroDish containing only 1 ml of culture medium and incubated for 15-20 min at 37° C. The culture medium was removed and washed (×2) and replaced with 1 ml PBS. Live cell calcium Imaging was performed on an Olympus FluoView FV 1000 confocal microscope (Olympus KeyMed) equipped with a 20× dry objective (numerical aperture=0.75). Calcium indicators were excited with an argon laser line (488 nm) and emissions recorded in the green channel (500-560 nm) for Fluo-4 and red channel (600-700 nm) for FuraRed after addition of vehicle control (PBS) or Wnt X (30-600 ng/ml). Images were acquired every 1.1 or 2.2 seconds for up to 600-800s; image and data acquisition was performed using FluoView 1000 software (Olympus, UK). Fluorescent intensity was measured and data exported as a tab delimited file for further analysis using a spreadsheet. All imaging experiments were performed in duplicate; intracellular calcium at 100 ng/ml was measured in at least 3-12 different passages (passage numbers 25 to 37) of cell line for each Wnt ligand. Wnt 11 was tested in at least 5 different passages at 3 different concentrations. […]
To measure the effect of changes in membrane potential on [Ca^2+]i release using the protocol described above, in some experiments, external solution (PBS) was substituted with varying concentrations of KCl. In other experiments chemical inhibitors of K^+ channels such as TEA, CsCl or tolbutamide (Sigma-Aldrich) were added to the cells grown on FluoroDish, at 37° C., at least 5 min prior to addition of Wnt ligands.
After image acquisition, regions of interest (ROI) were drawn over individual PC3 cells (up to 25) in a single frame and calcium intensity measurements were made using FluoView 1000 software (Olympus, UK). The measurements were exported as a tab delimited file into a spreadsheet for further analysis and Fluo4/Fura Red ratios were calculated. The waveform, a product of the ratio of Fluo4 and FuraRed over the period of measurement was used to measure the kinetics of the activation of [Ca^2+]i release in PC3 cells, in response to different Wnt ligands. The time constants (rise, dwell and fall times) were calculated by first fitting the Fluo4/FuraRed ratio to a single Gaussian function (Origin Lab Corp., MA); a lower (10%) and upper (90%) amplitude thresholding method was then used to calculate the time constants (s). Statistical significance was calculated using Mann Whitney U test.

[3] = system: PC3 cells; test: Intranuclear calcium and membrane potential imaging (Fluo4 and FM4-64); details: Wnt5A 100 ng/ml
Protocol: as §1, with “[…])” for “KeyMed)”, “ligand.” for “ligand. Wnt 11 was tested in at least 5 different passages at 3 different concentrations.”

Row | Molecule | rate of wound closure [1] | increase in [Ca2+]i in response to Wnt ligands (5A, 9B and 10B) after thapsigargin [2] | delay of increase in intranuclear Ca2+ after start of increase in [Ca2+]i ([3]; Fluo4 and FM4) | FM4 signal (depolarization) of cell and nuclear membranes ([3]; t=250s)
1 | C/C=C(/C)C(=O)O[C@H]1C(C)=C2[C@H]([C@@H]1OC(=O)CCCCCCC)[C@@](C)(OC(C)=O)C[C@H](OC(=O)CCC)[C@@]1(O)[C@H]2OC(=O)[C@@]1(C)O [thapsigargin, reference compound] | significant decrease | abolished |  | 
2 | B1 |  |  | ~33 s | increase in the FM4 signal in the cell and nuclear membranes
